Measurements: ChEMBL document CHEMBL1201862, “PubChem BioAssay data set” (2004)
Active and inactive are the calls of the source.

Columns and labels:
INS1 = assay: beta cell apoptosis inhibitors, cytokine rescue, dose response, luminescence, retest (AID 449756); format: functional, cell-based; details: Rattus norvegicus;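 note: cell death triggered by IL-1 beta plus TNF-alpha plus IFN-gamma mixture; protective hits raise ATP signal compared with cytokine alone wells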
Paired box protein Pax-8 = Paired box protein Pax-8 (Homo sapiens, UniProt Q06710); assay: inhibitors of PAX8-driven TPO luciferase reporter, dose response, RMG-I cells, cherry-pick (AID 687027); format: functional, cell-based;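 note: luciferase reporter driven by Pax8 target thyroperoxidase promoter measured by SteadyGlo luminescence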
Chain of Paired box protein Pax-8 (Q06710 whole entry): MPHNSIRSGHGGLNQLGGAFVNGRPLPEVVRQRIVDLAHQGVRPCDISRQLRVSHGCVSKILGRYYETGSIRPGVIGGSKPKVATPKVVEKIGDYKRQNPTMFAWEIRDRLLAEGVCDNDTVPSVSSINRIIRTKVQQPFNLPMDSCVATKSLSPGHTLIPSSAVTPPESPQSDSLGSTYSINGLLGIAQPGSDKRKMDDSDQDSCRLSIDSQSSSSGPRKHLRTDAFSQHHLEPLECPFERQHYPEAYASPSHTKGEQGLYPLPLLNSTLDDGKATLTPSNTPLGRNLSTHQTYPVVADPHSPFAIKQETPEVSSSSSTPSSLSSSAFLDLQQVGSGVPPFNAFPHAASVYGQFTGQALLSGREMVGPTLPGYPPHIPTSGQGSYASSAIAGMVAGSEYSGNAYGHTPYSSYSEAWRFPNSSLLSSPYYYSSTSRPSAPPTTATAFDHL

[1] = target: T1, Replicative DNA helicase DnaB (Mycobacterium tuberculosis, UniProt P9WMR3); assay: DnaB intein splicing inhibitors, dose response, biochemical, cell-free fluorescence (AID 449749); format: functional
T1 sequence (P9WMR3 whole entry): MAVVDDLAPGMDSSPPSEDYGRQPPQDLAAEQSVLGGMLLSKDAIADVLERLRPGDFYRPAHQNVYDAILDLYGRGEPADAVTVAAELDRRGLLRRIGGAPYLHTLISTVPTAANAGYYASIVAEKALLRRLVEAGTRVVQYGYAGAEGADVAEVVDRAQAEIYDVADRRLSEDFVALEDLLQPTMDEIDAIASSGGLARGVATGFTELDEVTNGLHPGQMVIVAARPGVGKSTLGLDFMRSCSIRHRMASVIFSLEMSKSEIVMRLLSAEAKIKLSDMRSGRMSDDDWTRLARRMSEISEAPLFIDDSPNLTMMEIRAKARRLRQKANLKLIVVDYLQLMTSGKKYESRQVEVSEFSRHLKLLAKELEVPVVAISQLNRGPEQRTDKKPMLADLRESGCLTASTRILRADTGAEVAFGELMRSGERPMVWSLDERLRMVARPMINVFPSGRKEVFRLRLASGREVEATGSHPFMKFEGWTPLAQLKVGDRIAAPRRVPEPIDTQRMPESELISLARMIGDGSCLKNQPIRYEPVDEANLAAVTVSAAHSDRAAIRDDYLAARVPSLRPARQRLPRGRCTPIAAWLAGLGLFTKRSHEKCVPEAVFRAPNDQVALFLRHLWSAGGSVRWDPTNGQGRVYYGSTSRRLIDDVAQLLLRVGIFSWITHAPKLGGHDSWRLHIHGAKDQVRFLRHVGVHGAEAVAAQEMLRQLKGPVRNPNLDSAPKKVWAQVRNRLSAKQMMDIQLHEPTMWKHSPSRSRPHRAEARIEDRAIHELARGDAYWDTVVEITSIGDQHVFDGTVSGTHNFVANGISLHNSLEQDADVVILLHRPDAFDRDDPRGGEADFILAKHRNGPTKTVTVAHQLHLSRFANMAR

Protein RecA = target: T2, Protein RecA (Mycobacterium tuberculosis, UniProt P9WHJ3); assay: Fluorescence Cell-Free Homogeneous Dose Retest to Identify Inhibitors of RecA-Intein Splicing Activity. [Related pubchem assays (depositor defined):AID2097, AID2223, AID489010, AID492950]; format: functional
T2 sequence (P9WHJ3 whole entry): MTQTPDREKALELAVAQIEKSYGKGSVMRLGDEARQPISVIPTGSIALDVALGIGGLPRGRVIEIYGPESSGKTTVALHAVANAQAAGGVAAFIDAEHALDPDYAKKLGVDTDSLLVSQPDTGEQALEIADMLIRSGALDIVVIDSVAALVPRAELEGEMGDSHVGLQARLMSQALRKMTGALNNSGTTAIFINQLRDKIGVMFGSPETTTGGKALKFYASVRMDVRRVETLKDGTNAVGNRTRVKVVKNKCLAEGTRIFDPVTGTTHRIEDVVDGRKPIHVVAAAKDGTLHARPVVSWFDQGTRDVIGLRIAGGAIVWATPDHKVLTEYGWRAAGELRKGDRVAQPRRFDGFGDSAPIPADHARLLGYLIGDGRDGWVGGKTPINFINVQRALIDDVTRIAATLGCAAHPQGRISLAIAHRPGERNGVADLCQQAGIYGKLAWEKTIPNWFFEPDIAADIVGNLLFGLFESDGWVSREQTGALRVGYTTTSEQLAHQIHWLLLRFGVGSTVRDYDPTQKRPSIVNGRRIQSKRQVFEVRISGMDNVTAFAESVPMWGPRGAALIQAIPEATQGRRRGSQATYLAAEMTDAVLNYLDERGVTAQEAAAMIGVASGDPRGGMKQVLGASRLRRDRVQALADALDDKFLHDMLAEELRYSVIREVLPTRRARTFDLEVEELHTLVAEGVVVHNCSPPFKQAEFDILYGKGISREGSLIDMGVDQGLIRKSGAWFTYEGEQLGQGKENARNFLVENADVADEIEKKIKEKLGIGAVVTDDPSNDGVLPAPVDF

[2] = Luminescence Cell-Based Dose Retest to Confirm Inhibitors of Cancer Stem Cells. [Related pubchem assays (depositor defined):AID2717, AID2721]; format: functional; details: Homo sapiens
[3] = target: T3, Corticotropin-releasing factor receptor 2/Corticotropin-releasing factor-binding protein (Homo sapiens, UniProt P24387+Q13324); assay: Dose Response confirmation of uHTS hits for small molecule antagonists of the CRF-binding protein and CRF-R2 receptor complex.; format: functional; details: read-out: IC50_Mean
T3 sequence (Q13324 whole entry): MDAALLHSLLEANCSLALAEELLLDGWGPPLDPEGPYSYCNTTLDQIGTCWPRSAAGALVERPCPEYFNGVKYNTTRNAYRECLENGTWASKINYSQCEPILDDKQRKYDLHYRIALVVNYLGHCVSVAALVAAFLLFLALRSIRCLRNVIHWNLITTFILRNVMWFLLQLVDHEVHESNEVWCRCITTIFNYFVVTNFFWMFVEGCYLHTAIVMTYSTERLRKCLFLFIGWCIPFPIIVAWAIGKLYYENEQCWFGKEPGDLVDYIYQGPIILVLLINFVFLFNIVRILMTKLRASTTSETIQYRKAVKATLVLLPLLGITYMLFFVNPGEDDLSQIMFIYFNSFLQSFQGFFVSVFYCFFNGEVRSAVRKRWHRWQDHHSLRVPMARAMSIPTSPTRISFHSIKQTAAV
T3 sequence (P24387 whole entry): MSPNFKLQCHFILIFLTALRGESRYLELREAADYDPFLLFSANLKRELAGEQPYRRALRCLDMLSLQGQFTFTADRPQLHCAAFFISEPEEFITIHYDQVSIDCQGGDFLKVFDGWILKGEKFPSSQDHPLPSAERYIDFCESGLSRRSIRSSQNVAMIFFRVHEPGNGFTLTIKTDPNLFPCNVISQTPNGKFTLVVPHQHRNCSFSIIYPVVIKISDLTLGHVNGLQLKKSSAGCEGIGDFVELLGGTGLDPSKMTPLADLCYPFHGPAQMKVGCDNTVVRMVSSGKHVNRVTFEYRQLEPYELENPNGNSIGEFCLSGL

[4] = target: T3, Corticotropin-releasing factor receptor 2/Corticotropin-releasing factor-binding protein; assay: activators of CRF receptor 2 with binding protein – uHTS hits, confirmation (AID 602473); format: functional; details: read-out: EC50_Mean
Cytochrome P450 2C9 = Cytochrome P450 2C9 (Homo sapiens, UniProt P11712)
Chain of Cytochrome P450 2C9 (P11712 whole entry): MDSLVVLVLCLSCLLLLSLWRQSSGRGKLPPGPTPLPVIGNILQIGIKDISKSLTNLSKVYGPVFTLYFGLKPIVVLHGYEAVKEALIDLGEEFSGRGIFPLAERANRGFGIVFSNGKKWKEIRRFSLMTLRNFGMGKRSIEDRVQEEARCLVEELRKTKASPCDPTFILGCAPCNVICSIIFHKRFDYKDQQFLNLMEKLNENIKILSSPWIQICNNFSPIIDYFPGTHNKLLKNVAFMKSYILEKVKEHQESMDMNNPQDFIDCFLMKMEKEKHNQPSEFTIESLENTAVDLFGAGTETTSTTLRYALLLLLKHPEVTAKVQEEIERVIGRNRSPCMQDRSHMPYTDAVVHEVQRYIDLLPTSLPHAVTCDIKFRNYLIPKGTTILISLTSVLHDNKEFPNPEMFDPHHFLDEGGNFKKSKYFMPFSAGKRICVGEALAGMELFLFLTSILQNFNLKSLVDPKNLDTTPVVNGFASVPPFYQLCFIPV

Cytochrome P450 1A2 = target: T4, Cytochrome P450 1A2 (Homo sapiens, UniProt P05177);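 note: PubChem cytochrome P450 panel assay, CYP1A2 panel member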
T4 sequence (P05177 whole entry): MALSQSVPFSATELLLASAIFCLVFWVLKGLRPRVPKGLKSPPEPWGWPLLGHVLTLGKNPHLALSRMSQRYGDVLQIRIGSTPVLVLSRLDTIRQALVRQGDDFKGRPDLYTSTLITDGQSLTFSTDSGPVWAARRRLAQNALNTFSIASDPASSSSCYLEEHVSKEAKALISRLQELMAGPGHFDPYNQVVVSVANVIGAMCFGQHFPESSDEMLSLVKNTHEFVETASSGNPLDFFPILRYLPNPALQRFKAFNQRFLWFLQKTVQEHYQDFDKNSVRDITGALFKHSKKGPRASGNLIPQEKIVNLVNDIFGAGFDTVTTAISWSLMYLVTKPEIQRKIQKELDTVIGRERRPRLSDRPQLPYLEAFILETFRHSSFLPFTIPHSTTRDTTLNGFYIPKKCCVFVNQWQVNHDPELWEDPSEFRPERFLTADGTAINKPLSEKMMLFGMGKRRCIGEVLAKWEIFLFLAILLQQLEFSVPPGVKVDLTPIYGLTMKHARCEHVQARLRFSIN

Cytochrome P450 2C19 = Cytochrome P450 2C19 (Homo sapiens, UniProt P33261); assay: Cytochrome panel assay with activity outcomes. Panel member name: p450-cyp2c19 Compounds with AC50 equal or less than 10 uM are considered active; format: functional; details: read-out: AC50
Chain of Cytochrome P450 2C19 (P33261 whole entry): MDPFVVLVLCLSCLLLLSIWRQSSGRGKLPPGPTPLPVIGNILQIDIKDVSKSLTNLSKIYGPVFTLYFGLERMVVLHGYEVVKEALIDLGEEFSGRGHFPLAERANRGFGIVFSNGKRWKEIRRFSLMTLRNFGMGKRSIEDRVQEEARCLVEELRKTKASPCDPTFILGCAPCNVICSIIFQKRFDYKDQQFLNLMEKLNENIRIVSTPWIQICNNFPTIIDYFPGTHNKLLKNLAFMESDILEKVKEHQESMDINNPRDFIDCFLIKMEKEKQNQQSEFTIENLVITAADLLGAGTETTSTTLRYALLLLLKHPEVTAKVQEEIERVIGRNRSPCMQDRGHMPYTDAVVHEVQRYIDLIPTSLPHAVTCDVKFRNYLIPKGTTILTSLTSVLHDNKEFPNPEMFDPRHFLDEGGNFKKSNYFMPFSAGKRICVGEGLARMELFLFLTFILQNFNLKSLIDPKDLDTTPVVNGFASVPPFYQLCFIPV

[5] = test system: Streptococcus sp. 'group A'; assay: growth inhibition of control SK(-) GAS strain, dose response, counter-screen for streptokinase expression inhibitor project, luminescence, kanamycin, BacTiterGlo, confirmation (AID 1900); format: functional, organism-based
Streptococcus = assay: Group A Streptococcus viability loss, dose response, counter-screen for streptokinase expression inhibitor project, luminescence, BacTiterGlo (AID 1915); format: functional, organism-based;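 note: potency for reduction of bacterial viability or growth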

SMILES: Cc1csc2c(N3CCN(C(=O)c4ccc(C(C)(C)C)cc4)CC3)ncnc12
- AC50 (INS1): 13.2 µM (active)

SMILES: Cc1ccc(S(=O)(=O)Nc2ccc3c(c2)C(=O)N([C@H](C)CO)C[C@@H](C)[C@H](CN(C)Cc2ccc(C(F)(F)F)cc2)OCCCC[C@@H](C)O3)cc1
- AC50 (Paired box protein Pax-8): 8.45 µM (active)

SMILES: Cc1n[nH]c(O)c1C(c1ccc([N+](=O)[O-])cc1)c1c(C)n[nH]c1O
- AC50 [1]: 0.704 µM (active)
- EC50 (Protein RecA): 0.27 µM (active)

SMILES: O=C(Nc1ccccc1N(C(=O)c1ccco1)S(=O)(=O)c1cccs1)c1ccco1
- AC50 [1]: 5.6 µM (active)
- EC50 (Protein RecA): 8.58 µM (active)

SMILES: CCOC(=O)C(=NCCCN1CCOCC1)NNc1cccc(C(F)(F)F)c1
- AC50 [2]: 8.17 µM (active)

SMILES: CCOC(=O)c1sc(NC(=O)c2cccc(S(=O)(=O)N3CCN(C)CC3)c2)cc1C
- IC50 [3]: > 47.1 µM (inactive)
- EC50 [4]: > 53 µM (inactive)

SMILES: Fc1ccc(NC(S)=Nc2cc(-c3ccccc3)[nH]n2)cc1Cl
- AC50 [2]: 3.05 µM (active)

SMILES: O=C(Nc1ccc([N+](=O)[O-])cn1)c1cc(-c2cccc(Br)c2)nc2ccccc12
- AC50 (Paired box protein Pax-8): 45.6 µM (active)

SMILES: Cc1cccc(C(=O)NC(=S)N2CCN(C(=S)NC(=O)c3cccc(C)c3)CC2)c1
- IC50 [3]: > 47.1 µM (inactive)
- EC50 [4]: > 53 µM (inactive)

SMILES: COc1ccccc1NC(=O)Nc1ccc(-n2ccc(C(F)(F)F)n2)cc1
- AC50 [2]: 4.01 µM (active)

SMILES: COc1ccc(C(c2c(C)n[nH]c2O)c2c(C)n[nH]c2O)cc1Br
- AC50 [1]: 0.32 µM (active)
- EC50 (Protein RecA): 0.289 µM (active)

SMILES: Cc1ccc(CN2CCN(C3CCOCC3)CC2CCO)cc1 (configuration not stated)
- IC50 [3]: > 47.1 µM (inactive)
- EC50 [4]: > 53 µM (inactive)

SMILES: CCOc1cc(/C=C2\C(=O)N(c3ccc(C(N)=O)cc3)N=C2C)ccc1OC(=O)c1cccs1
- AC50 [1]: 2.35 µM (active)
- EC50 (Protein RecA): 1.93 µM (active)

SMILES: COc1cccc(C2CC(c3cccs3)=NN2C(=S)Nc2ccccc2)c1OC (configuration not stated)
- IC50 [3]: > 47.1 µM (inactive)
- EC50 [4]: > 53 µM (inactive)

SMILES: CC#CCOC(=O)c1c(C)nc2sc3c(c2c1N)CCC(O)C3 (configuration not stated)
- AC50 [2]: 4.7 µM (active)

SMILES: Cc1ccccc1C(=O)N1CCN(c2ccc(NC(=O)c3cccnc3)cc2)CC1
- AC50 (INS1): 7.89 µM (active)

SMILES: COc1ccc(-c2ccc(C)cc2)cc1[C@H]1[C@@H]2C=CCC[C@@]2(C)C(=O)N1Cc1ccccc1
- AC50 [2]: 3.36 µM (active)

SMILES: O=C(NCc1ccccn1)C1CCN(S(=O)(=O)c2c[nH]cn2)CC1
- IC50 [3]: > 47.1 µM (inactive)
- EC50 [4]: > 53 µM (inactive)

SMILES: Clc1ccc(-c2nnc(CSc3nnc(-c4cccs4)o3)o2)cc1
- IC50 [3]: > 47.1 µM (inactive)
- EC50 [4]: > 53 µM (inactive)

SMILES: Cc1sc2ncnc(OCC(=O)NC(C)C)c2c1C
- AC50 (Cytochrome P450 2C9): 22.4 µM (inconclusive)
- IC50 [3]: > 47.1 µM (inactive)
- EC50 [4]: > 53 µM (inactive)
- AC50 (Cytochrome P450 1A2): 31.6 µM (inconclusive)
- AC50 (Cytochrome P450 2C19): 20 µM (inconclusive)

SMILES: Oc1ccc(/C=N/Nc2nc(N3CCCCCC3)nc(N3CCCCCC3)n2)c(O)c1
- EC50 [5]: 1.13 µM (active)
- IC50 [3]: > 47.1 µM (inactive)
- EC50 [4]: > 53 µM (inactive)
- EC50 (Streptococcus): 1.86 µM (active)

SMILES: CC(Oc1cccc(Cl)c1)C(=O)NNC(=O)c1cccnc1 (configuration not stated)
- IC50 [3]: > 47.1 µM (inactive)
- EC50 [4]: > 53 µM (inactive)

SMILES: O=C(C1CCCN(S(=O)(=O)c2ccc([N+](=O)[O-])cc2)C1)N1CCCCC1 (configuration not stated)
- AC50 [2]: > 195 µM (inactive)

SMILES: C[C@@H]1CCCCO[C@H](CN(C)Cc2ccc(Cl)c(Cl)c2)[C@@H](C)CN([C@@H](C)CO)C(=O)c2cc(NS(=O)(=O)c3ccc(Cl)cc3)ccc2O1
- AC50 (Paired box protein Pax-8): 10.2 µM (active)

SMILES: Cc1ccc2nsnc2c1NS(=O)(=O)c1c(C)ccc2nsnc12
- AC50 [1]: 37.8 µM (active)
- EC50 (Protein RecA): 24.8 µM (active)

SMILES: C[C@@H]1CN([C@H](C)CO)C(=O)c2cc(NC(=O)Nc3ccc(F)cc3)ccc2O[C@@H](C)CCCCO[C@H]1CN(C)S(=O)(=O)c1ccc(F)cc1
- AC50 (Paired box protein Pax-8): 8.62 µM (active)

SMILES: CC1=NNC(=O)C1Cc1ccc(F)cc1 (configuration not stated)
- AC50 [1]: 14 µM (active)
- EC50 (Protein RecA): 14.2 µM (active)
